Results on 2 molecules are retold here after patent publication US6767738B1, “Method of isolating adult mammalian CNS-derived progenitor stem cells using density gradient centrifugation” (The Salk Institute for Biological Studies, priority 1999, dated 2004).

One test concerns clonal stem cells (AP14). As to the kind of experiment: Neuronal differentiation of clonal adult stem cell cultures (Map2ab immunofluorescence). The format is cell-based, rat. On the procedure: Cell Culture. For proliferating conditions, clonal stem cells (AP14) were cultured in Dulbecco's Modified Eagles Medium/Ham's F12 (DMEM/F12, 1:1) containing N2 supplement (Gibco BRL, Gaithersburg, Md.) and 20 ng/ml rhFGF-2 (provided by A. Baird, Prizm Pharmaceuticals Inc., La Jolla, Calif.). Culture dishes (Becton Dickinsin Labware, Lincoln Park, N.J.) were coated with polyomithine and mouse laminin as previously described by Ray, et al., Proliferation, differentiation and long-term culture of primary hippocampal neurons, Proc Natl Acad Sci USA 90:3602-3606 (1993). For differentiation experiments, cells were plated into polyornithine/laminin coated glass chamber slides (Nunc, Naperville, Ill.) at a density of 2.5—103 per cm2. […] Louis, Mo.). For further differentiation, the medium was replaced by N2 medium containing 0.5% FBS and one of the following: sterile water (control solvent), mouse 2.55 NGF (50 ng/ml, Boehringer Mannheim, Indianapolis, Ind.), rhBDNF (20 ng/ml, Alomone Labs, Jerusalem, Israel), rhNT-3 (40 ng/ml, Genentech, South San Francisco, Calif.). […]
Immunofluorescence. […] Both the average percentage and the absolute number +/− SEM of immunofluorescent cells were determined by counting 10 or 50 high power fields (20×) visualized under fluorescence. The total number of cells was counted using nuclear counterstaining with 4′,6diamidino-2-phenylindole (DAPI, Sigma). […]

The subject of test [1] is low-buoyancy cortical cells. As to the kind of experiment: Acquisition of neuron competence by low-buoyancy cortical cells in culture. The format is cell-based, rat. The text has this: Tissue dissection: Three areas were dissected from adult rat brains as follows. Rats (170-190 g Fisher 344 males or females, Harlan) were deeply anesthetized with a mixture of ketamine, xylazine, and acepromazine. Animals were decapitated and whole brains removed. First, ˜1.5 mm of each optic nerve were harvested rostral to, but not including, the optic chiasma. The brain was then bisected longitudinally and each hippocampal lobe separated from the overlaying cortical white matter using the natural separation line along the alveus hippocampus. The white matter of the fimbria and subiculum was removed as much as possible. Some white matter remained. Finally, a 1.5 mm wide cortical ribbon containing parietal and frontal segments was dissected longitudinally, proximal to the central fissure. The pial and callosal surfaces were trimmed from each cortical ribbon to remove a majority of the meninges and white matter.
Tissue dissociation and fractionation: Tissues were finely minced and digested in a solution of papain (2.5 U/ml, Worthington), DNAse (250 U/ml, Worthington), and neutral protease (1 U/ml Dispase, Boehringer) dissolved in Hanks balanced salt solution, as described in Palmer T D, Ray J, Gage F H (1995), FGF-2-Responsive Neuronal Progenitors Reside in Proliferative and Quiescent Regions of the Adult Rodent Brain. Mol Cell Neurosci 6:474-486; and Gage F H, Coates P W, Palmer T D, Kuhn H G, Fisher L J, Suhonen J O, Peterson D A, Suhr S T, Ray J (1995), Survival and differentiation of adult neuronal progenitor cells transplanted to the adult brain. Proc Natl Acad Sci USA 92:11879-11883. Cells and tissue fragments were washed 3 times with Dulbecco's Modified Eagles Medium (DMEM) containing 10% […] bovine serum (defined FBS, Hyclone). Whole digested tissue was then suspended in DMEM 10% FBS, filtered through a sterile 107 μm nylon mesh and thoroughly mixed with an equal volume of PERCOLL™ (polyvinylpyrrolidone-coated silica colloids) solution. The PERCOLL™ (polyvinylpyrrolidone-coated silica colloids) solution was made by mixing 9 parts of PERCOLL™ (polyvinylpyrrolidone-coated silica colloids) (Pharmacia) with 1 part 10X phosphate buffered saline (PBS, Irvine Scientific). The cell suspension was then fractionated by centrifugation for 30 minute, 18°C., at 20,000×g. […]
To determine how rapidly cortical cells acquired the competence to differentiate into neurons in culture, cells were isolated and cultured in growth medium for various times, allowed to differentiate in differentiation medium and then evaluated for the presence of neurons. […] Cultures were also treated with BrdU for the first 10 days and the newly generated neurons were evaluated for evidence of cell division. All neurons scored were labeled (>99%).

`CC1=C(/C=C/C(C)=C/C=C/C(C)=C/C(=O)O)C(C)(C)CCC1` [RA, all-trans retinoic acid]: in the test with clonal stem cells (AP14) (FGF-2 withdrawal, 500 nM RA plus 0.5% FBS 6 days, then 6 days 0.5% serum alone), the “number of Map2ab-immunoreactive (IR) neurons relative to growth factor withdrawal and 0.5% serum alone” value is on record as “more than tripled”. Besides, the “increase in number of MAP2ab-positive cells” value in the test with clonal stem cells (AP14) (RA for 6 days, then RA withdrawn for additional 6 days) was 3 fold.
Regarding “FGF-2: basic fibroblast growth factor, human recombinant, prepared in E. coli”, in test [1] (BrdU for the first 10 days), the “newly generated neurons labeled with BrdU” value is more than 99%. Besides, in test [1] (after three days in FGF-2), the “neurons observed in cortical cultures” value was “the occasional neuron was observed”. Besides, the “cells that formed neurons when induced to differentiate” value in test [1] (by 4 weeks in FGF-2 growth medium, 3 passages) is listed as “roughly 10%”.
